System: 22GT (DNA, G4) GGGTTAGGGTTAGGGTTAGGGT
Experiment: ITC, global fit of coupled folding/binding model
Settings: 100 mM K+; 1 mM cacodylate, 0.02 mM EDTA, pH 6.9, 3% DMSO, 25 °C; site 1 of 2 (intermediate I)

SMILES: C[n+]1cc(NC(=O)c2cccc(C(=O)Nc3cc4ccccc4[n+](C)c3)n2)cc2ccccc21
- ΔG°: -9.6 ± 0.6 kcal/mol
